Results reported in ChEMBL document CHEMBL3137667, “[Drug-induced liver injury; fourteenth updated edition of the bibliographic database of liver injuries and related drugs]” (Gastroenterol Clin Biol, 2004).

Columns and labels:
[1] = Highest frequency of moderate liver toxicity observed during clinical trials, expressed as a percentage. [column '% BIOL' in source]; details: human
[2] = Highest frequency of acute liver toxicity observed during clinical trials, expressed as a percentage. [column '% AIGUE' in source]; details: human
[3] = human, serum
[4] = human, serum; remark: listed apart in the source
[5] = human
[6] = human; remark: listed apart in the source
[7] = human; remark: listed apart in the source
[8] = human, serum, 4383 h
[9] = human; remark: listed apart in the source
[10] = human; remark: listed apart in the source
[11] = human; remark: listed apart in the source
[12] = human; remark: listed apart in the source
[13] = human; remark: listed apart in the source
[14] = human; remark: listed apart in the source
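Throughout, for Hepatotoxicity (association with vascular disease): count of indexed literature references reporting vascular liver injury in humans, e.g. peliosis hepatitis, hepatic veno-occlusive disease or Budd-Chiari syndrome.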
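Throughout, for Hepatotoxicity (benign tumour): value is a count of indexed literature references citing a benign tumour confirmed by histopathology.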
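Throughout, for Hepatotoxicity (choleostasis): human cholestatic liver injury, shown by histopathology or by peak ALT or AST elevation over alkaline phosphatase ratio below 2, value counts indexed literature reports.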
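Throughout, for Hepatotoxicity (chronic liver disease): chronic liver injury confirmed by histopathology or persistently raised serum aminotransferase activity beyond 6 months, value given as the count of indexed literature references.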
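Throughout, for Hepatotoxicity (cirrhosis): value is a count of indexed literature references reporting cirrhosis confirmed by histopathology.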
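Throughout, for Hepatotoxicity (cytolytic): human cytolytic liver injury, shown by histopathology or by a ratio above 5 of peak ALT or AST elevation to alkaline phosphatase elevation, value counts indexed references.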
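Throughout, for Hepatotoxicity (granulomatous hepatitis): value is a count of indexed literature references reporting granulomatous liver disease confirmed by histopathology.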
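Throughout, for Hepatotoxicity (malignant tumour): malignant tumour confirmed by histopathology, value gives the count of indexed literature references reporting it.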
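Throughout, for Hepatotoxicity (severe hepatitis): human clinical data: severe hepatitis, meaning potentially life-threatening liver failure or clinically observed cases, the value counts how many indexed literature references report it.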
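Throughout, for Hepatotoxicity (steatosis): steatosis confirmed by histopathology, value is the count of indexed references.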

SMILES | Hepatotoxicity (moderate) [1] [%] | Hepatotoxicity (acute) [2] [%] | Hepatotoxicity (moderate) [3] | Hepatotoxicity (acute) [4] | Hepatotoxicity (cytolytic) [5] | Hepatotoxicity (choleostasis) [6] | Hepatotoxicity (severe hepatitis) [7] | Hepatotoxicity (chronic liver disease) [8] | Hepatotoxicity (cirrhosis) [9] | Hepatotoxicity (granulomatous hepatitis) [10] | Hepatotoxicity (association with vascular disease) [11] | Hepatotoxicity (steatosis) [12] | Hepatotoxicity (malignant tumour) [13] | Hepatotoxicity (benign tumour) [14]
CC1(C)[C@@H](OC(=O)CCC(=O)O)CC[C@]2(C)[C@H]3C(=O)C=C4[C@@H]5C[C@@](C)(C(=O)O)CC[C@]5(C)CC[C@@]4(C)[C@]3(C)CC[C@@H]12 [CARBENOXOLONE] | 0 | 0 | 2 | 0 | 0 | 0 | 0 | 0 | 0 | 0 | 0 | 0 | 0 | 0
C[C@@](Cc1ccc(O)c(O)c1)(NN)C(=O)O.O [CARBIDOPA] | 0 | 0 | 0 | 1 | 0 | 1 | 0 | 0 | 0 | 0 | 0 | 1 | 0 | 0
N[C@@H](CSCC(=O)O)C(=O)O [CARBOCYSTEINE] | 0.8 | 0 | 1 | 0 | 0 | 0 | 0 | 0 | 0 | 0 | 0 | 0 | 0 | 0
NC(=O)OC[C@@H]1[C@H](NC(=O)/C(=N\OCC(=O)O)c2csc(N)n2)C(=O)N1S(=O)(=O)O [CARUMONAM] | 22 | 0 | 24 | 0 | 0 | 0 | 0 | 0 | 0 | 0 | 0 | 0 | 0 | 0
CC[C@H](C)C[C@H](C)CCCCCCCCC(=O)N[C@H]1C[C@@H](O)[C@@H](NCCN)NC(=O)[C@@H]2[C@@H](O)CCN2C(=O)[C@H]([C@H](O)CCN)NC(=O)[C@H]([C@H](O)[C@@H](O)c2ccc(O)cc2)NC(=O)[C@@H]2C[C@@H](O)CN2C(=O)[C@H]([C@@H](C)O)NC1=O [CASPOFUNGIN] | 8.4 | 0 | 3 | 1 | 0 | 0 | 0 | 0 | 0 | 0 | 0 | 0 | 0 | 0
CCN1CCN(C(=O)N[C@@H](C(=O)N[C@]2(OC)C(=O)N3C(C(=O)O)=C(CSc4nnnn4C)CS[C@@H]32)[C@H](C)O)C(=O)C1=O [CEFBUPERAZONE] | 6.4 | 0 | 2 | 0 | 0 | 0 | 0 | 0 | 0 | 0 | 0 | 0 | 0 | 0
CO/N=C(\C(=O)N[C@@H]1C(=O)N2C(C(=O)[O-])=C(C[N+]34CCC(C(N)=O)(CC3)CC4)CS[C@H]12)c1nsc(N)n1 [CEFCLIDIN] | 40 | 0 | 49 | 0 | 0 | 0 | 1 | 0 | 0 | 0 | 0 | 0 | 0 | 0
CO/N=C(\C(=O)N[C@@H]1C(=O)N2C(C(=O)OCOC(=O)C(C)(C)C)=C(/C=C\c3scnc3C)CS[C@H]12)c1csc(N)n1 [CEFDITOREN PIVOXIL] | 37.5 | 0 | 41 | 0 | 0 | 0 | 0 | 0 | 0 | 0 | 0 | 0 | 0 | 0
CO[C@@]1(NC(=O)CSCC#N)C(=O)N2C(C(=O)O)=C(CSc3nnnn3C)CS[C@@H]21 [CEFMETAZOLE] | 9.1 | 0 | 5 | 0 | 0 | 0 | 0 | 0 | 0 | 0 | 0 | 0 | 0 | 0
CO/N=C(\C(=O)N[C@@H]1C(=O)N2C(C(=O)O)=C(CSc3nc(C)c(CC(=O)O)s3)CS[C@H]12)c1csc(N)n1 [CEFODIZIME] | 44.4 | 0 | 51 | 0 | 0 | 0 | 0 | 0 | 0 | 0 | 0 | 0 | 0 | 0
CO/N=C(\C(=O)N[C@@H]1C(=O)N2C(C(=O)[O-])=C(C[n+]3ccc(N)n3CCO)CS[C@H]12)c1csc(N)n1 [CEFOSELIS] | 25 | 0 | 33 | 0 | 0 | 0 | 0 | 0 | 0 | 0 | 0 | 0 | 0 | 0
CO[C@@]1(NC(=O)C2SC(=C(C(N)=O)C(=O)O)S2)C(=O)N2C(C(=O)O)=C(CSc3nnnn3C)CS[C@@H]21 (stereo partly specified) [CEFOTETAN] | 37.5 | 0 | 10 | 0 | 0 | 0 | 0 | 0 | 0 | 0 | 0 | 0 | 0 | 0
CO/N=C(\C(=O)N[C@@H]1C(=O)N2C(C(=O)[O-])=C(C[n+]3ccn4ncccc43)CS[C@H]12)c1nsc(N)n1 [CEFOZOPRAN] | 50 | 0 | 68 | 0 | 0 | 0 | 0 | 0 | 0 | 0 | 0 | 0 | 0 | 0
O=C(O)C1=C(C[n+]2ccc(CCS(=O)(=O)[O-])cc2)CS[C@@H]2[C@H](NC(=O)[C@H](NC(=O)c3[nH]cnc3C(=O)O)c3ccccc3)C(=O)N12 [CEFPIMIZOLE] | 18.8 | 0 | 30 | 0 | 0 | 0 | 0 | 0 | 0 | 0 | 0 | 0 | 0 | 0
